Experimental findings from patent US10086030B2, “Use of composition in preparing health care products or medicines for preventing and treating allergic diseases” (JIANGZHONG PHARMACEUTICAL CO., LTD., priority 2012, dated 2018) are described below.

For assay [1], the system named is delayed hypersensitivity in mouse auricle skin caused by 2,4-dinitrochlorobenzene. As to the kind of experiment: Delayed hypersensitivity in mouse auricle skin caused by 2,4-dinitrochlorobenzene. Type of assay: in vivo, Kunming mice. To be noted: mice.
Experimental: A 5% 2,4-dinitrochlorobenzene solution in ethanol was applied onto the abdominal skin (shaved) of the mice for sensitization. […] 7 days after sensitization, a 1% 2,4-dinitrochlorobenzene solution was applied onto the right ear, and the mice were sacrificed after 24 hours, and both ears were cut off along the auricle baseline. Discs having a diameter of 8 mm were punctured out at the same position on both ears, precisely weighed on an electronic balance, and the weight difference between the left and right ears was taken as the value for delayed hypersensitivity.
Assay [2] concerns passive anaphylaxis (PCA) in rats caused by ovalbumin. As to the kind of experiment: Passive anaphylaxis (PCA) in rats caused by ovalbumin: diameter of blue spots, mast cell degranulation, serum histamine. To be noted: for Diameter of blue spots 1:4: 1:4 anti-ovalbumin serum; for Diameter of blue spots 1:8: 1:8 anti-ovalbumin serum. The format is in vivo, SD rats. Here is the method: On day 15, the back of the rats were shaved, and was intradermally injected with a diluted antiserum at two spots on each side with 0.1 ml per spot. After 48 hours, a 1.0 ml mixed solution of 1% Evans Blue and 1% ovalbumin in physiological saline was injected into the tail vein of each rat. […] The rats were then sacrificed, and their back skin was inverted to measure the diameter of blue reaction spots to determine the difference between the dosing groups and the model group. A sample of the rat skin tissue was fixed with neutral formaldehyde, dehydrated with an alcohol gradient, embedded in paraffin, and examined for mast cell degranulation in the tissue[^3]. […] On day 15, the back of the rats were shaved, and was intradermally injected with a diluted antiserum at two spots on each side with 0.1 ml per spot. After 48 hours, a 1.0 ml mixed solution of 1% Evans Blue and 1% ovalbumin in physiological saline was injected into the tail vein of each rat. […] The rats were then sacrificed, and their back skin was inverted to measure the diameter of blue reaction spots to determine the difference between the dosing groups and the model group. A sample of the rat skin tissue was fixed with neutral formaldehyde, dehydrated with an alcohol gradient, embedded in paraffin, and examined for mast cell degranulation in the tissue^[3]. […] On day 15, the back of the rats were shaved, and was intradermally injected with a diluted antiserum at two spots on each side with 0.1 ml per spot. After 48 hours, a 1.0 ml mixed solution of 1% Evans Blue and 1% ovalbumin in physiological saline was injected into the tail vein of each rat. […] The rats were then sacrificed, and their back skin was inverted to measure the diameter of blue reaction spots to determine the difference between the dosing groups and the model group. A sample of the rat skin tissue was fixed with neutral formaldehyde, dehydrated with an alcohol gradient, embedded in paraffin, and examined for mast cell degranulation in the tissue^[3]. […] On day 15, the back of the rats were shaved, and was intradermally injected with a diluted antiserum at two spots on each side with 0.1 ml per spot. After 48 hours, a 1.0 ml mixed solution of 1% Evans Blue and 1% ovalbumin in physiological saline was injected into the tail vein of each rat. […] The rats were then sacrificed, and their back skin was inverted to measure the diameter of blue reaction spots to determine the difference between the dosing groups and the model group. A sample of the rat skin tissue was fixed with neutral formaldehyde, dehydrated with an alcohol gradient, embedded in paraffin, and examined for mast cell degranulation in the tissue^[3]. […] On day 15, the back of the rats were shaved, and was intradermally injected with a diluted antiserum at two spots on each side with 0.1 ml per spot. After 48 hours, a 1.0 ml mixed solution of 1% Evans Blue and 1% ovalbumin in physiological saline was injected into the tail vein of each rat. […] The rats were then sacrificed, and their back skin was inverted to measure the diameter of blue reaction spots to determine the difference between the dosing groups and the model group. A sample of the rat skin tissue was fixed with neutral formaldehyde, dehydrated with an alcohol gradient, embedded in paraffin, and examined for mast cell degranulation in the tissue^[3]. […] On day 15, the back of the rats were shaved, and was intradermally injected with a diluted antiserum at two spots on each side with 0.1 ml per spot. After 48 hours, a 1.0 ml mixed solution of 1% Evans Blue and 1% ovalbumin in physiological saline was injected into the tail vein of each rat. […] The rats were then sacrificed, and their back skin was inverted to measure the diameter of blue reaction spots to determine the difference between the dosing groups and the model group.

The test system of assay [3] is local itching in mice caused by low-molecular-weight dextran. Briefly: Local itching in mice caused by low-molecular-weight dextran. Type of assay: in vivo, Kunming mice. Here is the method:
Intragastric administration was carried out to the mice once per day for 10 consecutive days. 30 min after the final administration, a 0.0125% low-molecular-weight dextran solution was injected at 0.1 g/10 g into the tail vein. The number of itching events (itching events were indicated by scratching on the head with front paws, scratching on the body with hind paws, and biting on various parts over the body) occurred within 30 min after injection with the low-molecular-weight dextran solution into tail veins of the mice in each group was observed and recorded. […] The number of itching events (itching events were indicated by scratching on the head with front paws, scratching on the body with hind paws, and biting on various parts over the body) occurred within 30 min after injection with the low-molecular-weight dextran solution into tail veins of the mice in each group was observed and recorded. […] The number of itching events (itching events were indicated by scratching on the head with front paws, scratching on the body with hind paws, and biting on various parts over the body) occurred within 30 min after injection with the low-molecular-weight dextran solution into tail veins of the mice in each group was observed and recorded. […] The number of itching events (itching events were indicated by scratching on the head with front paws, scratching on the body with hind paws, and biting on various parts over the body) occurred within 30 min after injection with the low-molecular-weight dextran solution into tail veins of the mice in each group was observed and recorded.

The mark [4] stands for this setting: prednisone 5.0 mg, Composition 6 study.
The mark [5] stands for this setting: prednisone 5.0 mg, Composition 7 study.
[6] abbreviates: prednisone 5.0 mg, Composition 8 study.

Several values for one entry are separate records, joined by “and”; a condition that tells them apart may be missing. Identical values can stand only once.

On to `C[C@]12C=CC(=O)C=C1CC[C@@H]1[C@@H]2C(=O)C[C@@]2(C)[C@H]1CC[C@]2(O)C(=O)CO` [prednisone], for which the “swelling degree of mouse auricle discs” value in assay [1] (positive control prednisone 5.0 mg (5 mg/kg) i.g. once daily 10 days) was 5.07 ± 0.59 mg and 4.22 ± 0.96 mg and 4.80 ± 0.73 mg; in assay [1] (setting [4]), 4.62 ± 0.79 mg; in assay [1] (setting [5]) it was 4.84 ± 0.70 mg; in assay [1] (setting [6]), 4.60 ± 0.82 mg. For the same molecule, the “Diameter of blue spots 1:4” value worked out at 13.22 ± 1.90 mm in assay [2] (setting [4]), 12.48 ± 2.16 mm in assay [2] (setting [5]) and 12.82 ± 2.62 mm in assay [2] (setting [6]). The “Diameter of blue spots 1:8” value was found to be 8.65 ± 1.52 mm in assay [2] (setting [4]), 8.32 ± 1.63 mm in assay [2] (setting [5]) and 8.54 ± 1.82 mm in assay [2] (setting [6]). Moreover, the “Diameter of blue spots (mm) 1:4” value in assay [2] (antiserum 1:4, positive control prednisone 5.0 mg (5 mg/kg) i.g. once daily 14 days) is 12.79 ± 1.88 mm and 11.94 ± 1.90 mm and 11.35 ± 1.74 mm. Moreover, the “Diameter of blue spots (mm) 1:8” value in assay [2] (antiserum 1:8, positive control prednisone 5.0 mg (5 mg/kg) i.g. once daily 14 days) is on record as 6.72 ± 1.31 mm. For the same molecule, the “Degranulation (mast cell)” value was 19.80 ± 10.57 in assay [2] (setting [4]); 17.54 ± 11.23 in assay [2] (setting [5]); 17.95 ± 11.82 in assay [2] (setting [6]); 22.54 ± 11.25 and 19.46 ± 8.72 and 21.33 ± 10.48 in assay [2] (skin tissue, positive control prednisone 5.0 mg (5 mg/kg) i.g. once daily 14 days). Also, the “Histamine fluorescence (serum histamine content)” value in assay [2] (setting [4]) came to 2.07 ± 0.76 mg·L; in assay [2] (setting [5]) it was 2.11 ± 0.70 mg·L; in assay [2] (setting [6]) it was 2.25 ± 0.76 mg·L. Further, the “Number of itching events (30 min)” value is 15.43 ± 4.56 in assay [3] (setting [4]); 15.57 ± 5.33 in assay [3] (setting [5]); 14.88 ± 5.08 in assay [3] (setting [6]); 18.30 ± 4.62 and 14.25 ± 6.72 and 17.20 ± 4.08 in assay [3] (within 30 min after dextran, positive control prednisone 5.0 mg i.g. once daily 10 days).
